Like-named read-outs stand apart in the source and are kept apart here.
How the values were obtained:
[1] = Chemical stability in ethanolic feed solution; format: physicochemical
[2] = Single and multiple oral doses of Compound I: pharmacokinetics; details: human, in vivo
[3] = PK drug-drug interaction between SOF and Compound I; format: in vivo, human; details: for AUCinf % GLSM Ratio (SOF + Compound I/SOF) (90% CI) / AUClast % GLSM Ratio (SOF + Compound I/SOF) (90% CI) / Cmax % GLSM Ratio (SOF + Compound I/SOF) (90% CI): SOF 400 mg + Compound I 150 mg vs SOF 400 mg
[4] = Food effect on Compound I solid dispersion as single agent; format: in vivo, human; details: Compound I 100 mg
[5] = tested on: genotype 1-6 HCV; assay: Compound I 3-day monotherapy study; format: in vivo, Hepatitis C virus
[6] = Spray dry feed solution solvent evaluation: solubility; format: physicochemical; details: Ethanol, methanol, acetone, and dichloromethane
Description: The feed solution was initially evaluated for appropriate solvent with regard to solubility, stability, and viscosity. […] Ethanol and methanol-based feed stocks were assessed for preparation ease and spray dried at a range of inlet and outlet temperatures to assess the robustness of the spray dry process. Both solvents gave rapid dissolution of Compound I and copovidone.

[7] = Sofosbuvir single dose exposure, 200 mg tablets; format: in vivo, human; details: single doses up to 1200 mg
Description: (§1) The mean sofosbuvir major metabolite AUCtau for the 400 mg sofosbuvir dose is associated with approximately 77% of the maximal HCV RNA change from baseline achievable as determined by this model, a value which is on the cusp of the plateau of the exposure-response sigmoidal curve. In a sigmoidal Emax model, there is a relatively linear exposure-response relationship in the 20 to 80% maximal effect range. Therefore, given that sofosbuvir exposure with 200 mg tablets appears dose-proportional with single doses up to 1200 mg, doses below 400 mg are expected to yield considerable reductions in the magnitude of HCV RNA change from baseline.

[8] = tested on: genotype 2 or 3 HCV; assay: Sofosbuvir 400 mg once daily plus other HCV therapeutics, SVR24; format: in vivo, Hepatitis C virus; details: genotype 2 or 3 HCV infected patients
Description: (§2) Safety and tolerability appeared similar across both dose levels. In addition, when sofosbuvir 400 mg once daily plus other HCV therapeutics were given to genotype 2 or 3 HCV infected patients, 100% SVR24 was observed.

[9] = tested on: genotype 1 HCV; assay: Sofosbuvir 400 mg vs 200 mg once daily with additional HCV therapeutics for 24 weeks; format: in vivo, Hepatitis C virus
Description: as §2

[10] = tested on: HCV RNA; assay: Emax PK/PD modeling of sofosbuvir dose; design: species or system Hepatitis C virus; details: 400 mg sofosbuvir dose, Emax model
Description: The sofosbuvir dose selected for the tablet formulation is 400 mg once daily. Support for the 400 mg sofosbuvir dose can be derived from Emax PK/PD modeling with early virological and human exposure data which also supports the selection of a 400 mg sofosbuvir dose over others tested.
as §1

[11] = SOF 400 mg + Compound I 150 mg vs Compound I 150 mg
[12] = SOF 400 mg + Compound I 150 mg, GLSM
[13] = SOF 400 mg single dose alone, GLSM
[14] = human, in vivo, SOF 400 mg + Compound I 150 mg, GLSM

SMILES: COC[C@H]1C[C@@H](c2ncc(-c3ccc4c(c3)COc3cc5c(ccc6nc([C@@H]7CC[C@H](C)N7C(=O)[C@@H](NC(=O)OC)C(C)C)[nH]c65)cc3-4)[nH]2)N(C(=O)[C@H](NC(=O)OC)c2ccccc2)C1 [Compound I, methyl {(2S)-1-[(2S,5S)-2-(9-{2-[(2S,4S)-1-{(2R)-2-[(methoxycarbonyl)amino]-2-phenylacetyl}-4-(methoxymethyl)pyrrolidin-2-yl]-1H-imidazol-5-yl}-1,11-dihydroisochromeno[4′,3′ 6,7]naphtho[1,2-d]imidazol-2-yl)-5-methylpyrrolidin-1-yl]-3-methyl-1-oxobutan-2-yl}carbamate]
- chemical stability [1]: good chemical stability
- CL/F ([2]; 5 mg): 58,398.0 mL/h
- CL/F ([2]; 50 mg): 19,188.4 mL/h
- CL/F ([2]; 100 mg): 24,617.9 mL/h
- CL/F ([2]; 450 mg): 53,676.4 mL/h
- Ctau ([3]; Compound I 150 mg multiple doses alone, GLSM): 101.09 ng/mL
- AUCtau % GLSM Ratio (SOF + Compound I/Compound I) (90% CI) [3, 11]: 111.71 (107.54, 116.04) %
- Cmax % GLSM Ratio (SOF + Compound I/Compound I) (90% CI) [3, 11]: 105.94 (101.86, 110.20) %
- Ctau % GLSM Ratio (SOF + Compound I/Compound I) (90% CI) [3, 11]: 117.61 (111.94, 123.57) %
- Ctau [3, 12]: 118.90 ng/mL
- AUC ([3]; human, plasma, oral, Compound I 150 mg multiple doses alone, GLSM): 7280 ng·h/mL
- Cmax ([3]; human, plasma, oral, Compound I 150 mg multiple doses alone, GLSM, read-out: Cmax): 932 ng/mL
- AUC ([3]; human, plasma, oral, SOF 400 mg + Compound I 150 mg, GLSM): 8140 ng·h/mL
- Cmax ([3]; human, plasma, oral, SOF 400 mg + Compound I 150 mg, GLSM, read-out: Cmax): 988 ng/mL
- AUCinf % GLSM Ratio (Fed/Fasted) ([4]; HFM): 86.30%
- AUClast % GLSM Ratio (Fed/Fasted) ([4]; HFM): 86.02%
- Cmax % GLSM Ratio (Fed/Fasted) ([4]; HFM): 75.02%
- AUCinf % GLSM Ratio (Fed/Fasted) ([4]; Light Breakfast): 124.72%
- AUClast % GLSM Ratio (Fed/Fasted) ([4]; Light Breakfast): 124.84%
- Cmax % GLSM Ratio (Fed/Fasted) ([4]; Light Breakfast): 134.89%
- activity against genotype 1-6 HCV [5]: potent activity
- solubility in feed solvent [6]: excellent solubility

SMILES: C[C@@]1(F)[C@H](O)[C@@H](CO)O[C@H]1n1ccc(=O)[nH]c1=O [SOF metabolite II]
- AUCinf % GLSM Ratio (SOF + Compound I/SOF) (90% CI) [3]: 116.32 (110.99, 121.90) %
- AUClast % GLSM Ratio (SOF + Compound I/SOF) (90% CI) [3]: 112.86 (107.90, 118.05) %
- Cmax % GLSM Ratio (SOF + Compound I/SOF) (90% CI) [3]: 64.17 (58.45, 70.44) %
- AUCinf [3, 12]: 13,774.96 ng · h/mL
- AUClast [3, 12]: 12,610.86 ng · h/mL
- Cmax [3, 12]: 693.62 ng/mL
- AUCinf [3, 13]: 11,842.52 ng · h/mL
- AUClast [3, 13]: 11,173.87 ng · h/mL
- Cmax [3, 13]: 1080.97 ng/mL

SMILES: C[C@H](NP(=O)(O)OC[C@H]1O[C@@H](n2ccc(=O)[nH]c2=O)[C@](C)(F)[C@@H]1O)C(=O)O [SOF metabolite I]
- AUCinf % GLSM Ratio (SOF + Compound I/SOF) (90% CI) [3]: 179.42 (165.03, 195.06) %
- AUClast % GLSM Ratio (SOF + Compound I/SOF) (90% CI) [3]: 182.35 (167.52, 198.50) %
- Cmax % GLSM Ratio (SOF + Compound I/SOF) (90% CI) [3]: 161.68 (145.27, 179.94) %
- AUCinf [3, 12]: 3455.70 ng·h/mL
- AUClast [3, 12]: 3394.32 ng·h/mL
- Cmax [3, 12]: 736.88 ng/mL
- AUCinf [3, 13]: 1926.09 ng·h/mL
- AUClast [3, 13]: 1861.41 ng·h/mL
- Cmax [3, 13]: 455.77 ng/mL
- increase in AUC when SOF coadministered with Compound I [3]: approximately 1.8 fold
- increase in Cmax when SOF coadministered with Compound I [3]: approximately 1.6 fold

SMILES: CC(C)OC(=O)[C@H](C)N[P@](=O)(OC[C@H]1O[C@@H](n2ccc(=O)[nH]c2=O)[C@](C)(F)[C@@H]1O)Oc1ccccc1 [sofosbuvir, (S)-isopropyl 2-(((S)-(((2R,3R,4R,5R)-5-(2,4-dioxo-3,4-dihydropyrimidin-1(2H)-yl)-4-fluoro-3-hydroxy-4-methyltetrahydrofuran-2-yl)methoxy)(phenoxy)phosphoryl)amino)propanoate, reference compound]
- dose proportionality of exposure [7]: dose-proportional
- SVR24 [8]: 100%
- AUCinf % GLSM Ratio (SOF + Compound I/SOF) (90% CI) [3]: 237.77 (214.27, 263.85) %
- AUClast % GLSM Ratio (SOF + Compound I/SOF) (90% CI) [3]: 238.10 (214.62, 264.16) %
- Cmax % GLSM Ratio (SOF + Compound I/SOF) (90% CI) [3]: 181.06 (149.43, 219.38) %
- AUCinf [3, 13]: 1159.50 ng·h/mL
- increase in AUC when SOF coadministered with Compound I [3]: ~2.4 fold
- increase in Cmax when SOF coadministered with Compound I [3]: approximately 1.8 fold
- AUC(0-inf) [3, 14]: 2760 ng·h/mL
- AUC(0-t) [3, 14]: 2750 ng·h/mL
- Cmax ([3]; human, in vivo, SOF 400 mg + Compound I 150 mg, GLSM, read-out: Cmax): 1590 ng/mL
- AUC(0-t) ([3]; human, in vivo, SOF 400 mg single dose alone, GLSM): 1150 ng·h/mL
- Cmax ([3]; human, in vivo, SOF 400 mg single dose alone, GLSM, read-out: Cmax): 880 ng/mL
- Safety and tolerability across both dose levels ([9]; 400 mg vs 200 mg once daily): similar
- SVR rates, 400 mg once daily compared to 200 mg once daily ([9]; genotype 1 HCV infected patients, with additional HCV therapeutics for 24 weeks): higher SVR rates
- fraction of the maximal HCV RNA change from baseline achievable, associated with mean major metabolite AUCtau [10]: approximately 77%

— patent publication US11707479B2, “Combination formulation of two antiviral compounds” (priority 2013, dated 2023)
